Measured values from patent US20130296346A1, “DIPHENYL-AMINE DERIVATIVES: USES, PROCESS OF SYNTHESIS AND PHARMACEUTICAL COMPOSITIONS” (Faes Farma, S.A., priority 2010, published 2013).
Marks after values point to notes of the source that are not given here.

Experiments:
MM1S cells = test: Multiple myeloma xenograft animal model; format: in vivo, CB17-SCID mice; conditions: 2.5 mg/kg i.v. 3 times/week
Procedure: The multiple myeloma (MM) MM1S cell line was cultured in RPMI-1640 medium containing 10% (v/v) heat-inactivated fetal bovine serum, 2 mM L-glutamine, 100 U/ml penicillin, and 100 μg/ml streptomycin at 37° C. in humidified 95% air and 5% CO2. Cells were periodically tested for Mycoplasma infection and found to be negative.
CB 17-severe combined immunodeficiency (SCID) mice (Charles River laboratories, Lyon, France), kept and handled according to institutional guidelines, complying with Spanish legislation under a 12/12 h light/dark cycle at a temperature of 22° C., received a standard diet and acidified water ad libitum. CB17-SCID mice were inoculated subcutaneously into their lower dorsum with 3×10^7MM1S cells in 100 μl PBS and 100 μl Matrigel basement membrane matrix (Becton Dickinson). When tumors were palpable, mice were randomly assigned into cohorts of 10 mice each, receiving i.v. administration (3 times/week) of the compound at the tail. The volume used for each i. v. administration was […] rendering a final drug concentration of 2.5 mg/kg (body weight). Mice i.v. administered with an equal volume of vehicle were run in parallel. The shortest and longest diameter of the tumor were measured with calipers, and tumor volume (10^−3 cm^3) was calculated using the following standard formula: […]. Animals were sacrificed, according to institutional guidelines, when the diameter of their tumors reached 3 cm or when significant toxicity was observed. Animal body weight and any sign of morbidity were monitored. Drug treatment was for 1 month. Then, tumors were isolated, measured and weighed, and a necropsy analysis involving tumors and distinct organs was carried out.

EHEB cells = test: Expression of proteins by immunoblotting in EHEB cells; format: cell-based, human; conditions: 10 μM
Procedure: Expression of different proteins in Compound 3-treated EHEB cells (FIG. 7B). Cells were treated with 10 μM Compound 3 for the indicated times and analyzed by immunoblotting with specific antibodies for the indicated proteins. The migration positions of the different proteins are indicated. β-actin was used as a loading control. Data shown are representative of three experiments performed.

MOSEC IDB cells = test: Ovarian tumor orthotopic animal model; format: in vivo, mice; conditions: 30 mg/Kg i.p. 5 days per week during 2 weeks
Procedure: Experiments were performed using MOSEC IDB cells (mouse ovarian surface epithelial cells) with cloned luciferase reporter and cells implanted on mice ovarian region (Yu-Hung Huang et al, Claudin-3 gene silencing with siRNA suppresses ovarian tumor growth and metastasis. 3426-3430 PNAS 2009. vol. 106, no. 9).
FIG. 6A represents a Pet picture of luciferase activity in vivo tumor (Compound 3 treated mice: 30 mg/Kg i.p. 5 days per week during 2 weeks).

HCT-116 and SW620 cells = test: Expression of apoptosis-related proteins by immunoblotting; format: cell-based, human; conditions: colon carcinoma cells, 10 μM
Procedure: Induction of apoptosis in human colon cancer HCT-116 cell line by Compound 3 (FIG. 8A). The induction of apoptosis was quantitated as the percentage of cells in the sub-G1 region (hypodiplody) of cell cycle analysis. Briefly, cells (5×10^5) were centrifuged and fixed overnight in 70% ethanol at 4° C. Cells were washed 3 times with PBS, incubated for 1 h with 1 mg/ml RNaseA and 20 μg/ml propidium iodide at room temperature, and then analyzed for cell cycle with a Becton Dickinson FACSCalibur flow cytometer (San Jose, Calif.). HCT-116 cells were incubated for the indicated times with 10 μM Compound 3, and apoptosis was then quantitated as percentage of cells in the sub-G1 region in cell cycle analysis by flow cytometry. The position of the sub-G1 peak (hypodiploidy), integrated by apoptotic cells, as well as the G0/G1 and G2/M peaks are indicated by arrows. Untreated control cells were run in parallel. The percentage of cells with a DNA content less than G1 (sub-G1) is indicated in each histogram. The experiment shown is representative of three performed Expression of different apoptosis-related proteins during Compound 3 treatment (FIG. 8B), HCT-116 and SW620 cells were treated with 10 μM Compound 3 for the indicated times and analyzed by immunoblotting with specific antibodies for the indicated proteins. The migration positions of the different proteins are indicated. β-actin was used as a loading control. Data shown are representative of three experiments performed. About 10^7 cells were pelleted by centrifugation, washed with PBS, and lysed. […]

Structure (SMILES): Fc1ccc(CNCCCC=C(c2ccccc2)c2ccccc2)cc1 [Compound 3, (5,5-diphenyl-pent-4-enyl)-(4-fluoro-benzyl)-amine hydrocloride]
- MM tumor volume, difference over the control for all measure days (MM1S cells; 1 month): stadistically significant
- Tumor Volume (MM1S cells; ex vivo after 1 month): 0.288 cm^3
- Tumor Weight (MM1S cells; ex vivo after 1 month): 0.647 g
- Inhibition (%) of Tumor Volume (MM1S cells; vs control, 1 month): 92.26** %
- Inhibition (%) of Tumor Weight (MM1S cells; vs control, 1 month): 85.84* %
- caspase-3 (EHEB cells): activation
- cleavage of PARP (EHEB cells): rapid cleavage
- Caspase-4 (EHEB cells; EHEB cells): activated
- caspase-9 (EHEB cells; EHEB cells): activated
- induction of autophagy (LC3-II formation) (EHEB cells; EHEB cells): very rapid and potent induction of autophagy
- in vivo antitumor activity, ovarian tumor area (MOSEC IDB cells): potent in vivo antitumor activity reducing the tumor area
- caspase-9 (HCT-116 and SW620 cells): induction
- expression of Mcl-1S (HCT-116 and SW620 cells): induced the expression
- protein level of p53 (HCT-116 and SW620 cells): increased
